# Measurements: paper PMC11822212, “High-throughput screening identifies Aurora kinase B as a critical therapeutic target for Merkel cell carcinoma” (Nature Communications, 2025)
# Like-named read-outs stand apart in the source and are kept apart here.
# What was measured:
# [1] = system: six MCC cell lines and four control cell lines; assay: qHTS cell viability, all 10 cell lines screened; format: cell-based
# [2] = system: VN-MCC cell lines (MCC13, MCC26, UISO); assay: qHTS cell viability, VN-MCC cell lines as a group (mean AUC, VN.MCC.avg); format: cell-based, human
# [3] = system: control cell lines (HACAT, HEK293T, CRL-7250, NIH-3T3); assay: qHTS cell viability, control cell lines as a group (mean AUC, Control.avg); format: cell-based
# WAGA cells (VP-MCC) = assay: qHTS cell viability (CellTiter-Glo, 72 h; primary and follow-up small molecule screen); format: cell-based, human
# MKL-2 cells (VP-MCC) = assay: as above; format: cell-based, human
# HACAT cells = assay: qHTS cell viability (CellTiter-Glo, 72 h; primary screen), control cell line; format: cell-based, human
# [4] = system: VP-MCC cell lines (WAGA, MKL-1, MKL-2); assay: qHTS cell viability, VP-MCC cell lines as a group (mean AUC, VP.MCC.avg); format: cell-based, human
# MCC13 cells (VN-MCC) = assay: qHTS cell viability (CellTiter-Glo, 72 h; primary and follow-up small molecule screen); format: cell-based, human
# UISO cells (VN-MCC) = assay: as above; format: cell-based, human
# [5] = system: MCC cell lines (WAGA, MKL-1, MKL-2, MCC13, MCC26, UISO); assay: qHTS cell viability, all six MCC cell lines as a group (mean AUC, MCC.avg); format: cell-based, human
# CRL-7250 cells = assay: qHTS cell viability (CellTiter-Glo, 72 h; primary screen), control cell line; format: cell-based
# MCC26 cells (VN-MCC) = assay: qHTS cell viability (CellTiter-Glo, 72 h; primary and follow-up small molecule screen); format: cell-based, human
# HEK293T cells = assay: qHTS cell viability (CellTiter-Glo, 72 h; primary screen), control cell line; format: cell-based, human
# NIH-3T3 cells = assay: as above; format: cell-based, mouse
# MKL-1 cells (VP-MCC) = assay: qHTS cell viability (CellTiter-Glo, 72 h; primary and follow-up small molecule screen); format: cell-based, human
# [6] = MIPE library, Control AUC minus MCC AUC (therapeutic window), sheet S2E
# [7] = MIPE library, Control AUC minus VN-MCC AUC (therapeutic window), sheet S2E
# [8] = MIPE library, mean AUC of VN-MCC cell lines, sheet S2E
# [9] = MIPE library, mean AUC of control cell lines, sheet S2E
# [10] = MIPE library, 11-point DRC, sheet S2E
# [11] = area under the dose-response curve, WAGA cells, AUC<450 = reduced viability
# [12] = area under the dose-response curve, MKL-2 cells, AUC<450 = reduced viability
# [13] = MIPE library, 11-point DRC, control cell line, sheet S2E
# [14] = area under the dose-response curve, HACAT control cells, AUC<450 = reduced viability
# [15] = MIPE library, Control AUC minus VP-MCC AUC (therapeutic window), sheet S2E
# [16] = MIPE library, mean AUC of VP-MCC cell lines, sheet S2E
# [17] = area under the dose-response curve, MCC13 cells, AUC<450 = reduced viability
# [18] = area under the dose-response curve, UISO cells, AUC<450 = reduced viability
# [19] = MIPE library, mean AUC of six MCC cell lines, sheet S2E
# [20] = area under the dose-response curve, CRL7250 control cells, AUC<450 = reduced viability
# [21] = area under the dose-response curve, MCC26 cells, AUC<450 = reduced viability
# [22] = area under the dose-response curve, HEK293T control cells, AUC<450 = reduced viability
# [23] = area under the dose-response curve, NIH3T3 control cells, AUC<450 = reduced viability
# [24] = area under the dose-response curve, MKL-1 cells, AUC<450 = reduced viability
structure (smiles),measurement,setting,value
Cc1ccc([N+](=O)[O-])[c]2c1[O][Hg]2 [Nitromersol],Control-MCC,[1],55.1407
same,Control-VN-MCC,[2],18.7838
same,VN-MCC_Avg_AUC,[2],326.845
same,Control_Avg_AUC,[3],345.629
same,WAGA_AUC,WAGA cells (VP-MCC),281.054
same,MKL2_AUC,MKL-2 cells (VP-MCC),228.637
same,HACAT_AUC,HACAT cells,397.686
same,Control-VP-MCC,[4],91.4976
same,VP-MCC_Avg_AUC,[4],254.131
same,MCC13_AUC,MCC13 cells (VN-MCC),325.021
same,UISO_AUC,UISO cells (VN-MCC),294.101
same,MCC_Avg_AUC,[5],290.488
same,CRL7250_AUC,CRL-7250 cells,286.086
same,MCC26_AUC,MCC26 cells (VN-MCC),361.414
same,HEK293T_AUC,HEK293T cells,310.441
same,NIH3T3_AUC,NIH-3T3 cells,388.302
same,MKL1_AUC,MKL-1 cells (VP-MCC),252.702
CN[C@@H]1[C@H](O)[C@H](NC)[C@H]2O[C@@]3(O)C(=O)C[C@@H](C)O[C@H]3O[C@@H]2[C@H]1O.Cl.Cl [Spectinomycin dihydrochloride],Control-MCC,[1]; [6],109.955
same,Control-VN-MCC,[2]; [7],27.501
same,VN-MCC_Avg_AUC,[2]; [8],445.075
same,Control_Avg_AUC,[3]; [9],472.576
same,WAGA_AUC,WAGA cells (VP-MCC); [10],274.54
same,WAGA_AUC,WAGA cells (VP-MCC); [11],400.83
same,MKL2_AUC,MKL-2 cells (VP-MCC); [10],323.757
same,MKL2_AUC,MKL-2 cells (VP-MCC); [12],429.069
same,HACAT_AUC,HACAT cells; [13],460.149
same,HACAT_AUC,HACAT cells; [14],475.545
same,Control-VP-MCC,[4]; [15],192.409
same,VP-MCC_Avg_AUC,[4]; [16],280.167
same,MCC13_AUC,MCC13 cells (VN-MCC); [10],461.506
same,MCC13_AUC,MCC13 cells (VN-MCC); [17],467.588
same,UISO_AUC,UISO cells (VN-MCC); [10],392.644
same,UISO_AUC,UISO cells (VN-MCC); [18],477.843
same,MCC_Avg_AUC,[5]; [19],362.621
same,CRL7250_AUC,CRL-7250 cells; [13],477.882
same,CRL7250_AUC,CRL-7250 cells; [20],453.169
same,MCC26_AUC,MCC26 cells (VN-MCC); [10],481.076
same,MCC26_AUC,MCC26 cells (VN-MCC); [21],511.183
same,HEK293T_AUC,HEK293T cells; [13],472.116
same,HEK293T_AUC,HEK293T cells; [22],456.43
same,NIH3T3_AUC,NIH-3T3 cells; [13],480.157
same,NIH3T3_AUC,NIH-3T3 cells; [23],486.283
same,MKL1_AUC,MKL-1 cells (VP-MCC); [10],242.204
same,MKL1_AUC,MKL-1 cells (VP-MCC); [24],379.185
O=C(CCc1ccc(O)cc1)c1c(O)cc(O)cc1O [Phloretin],Control-MCC,[1]; [6],23.8842
same,Control-VN-MCC,[2]; [7],-6.696
same,VN-MCC_Avg_AUC,[2]; [8],476.56
same,Control_Avg_AUC,[3]; [9],469.864
same,WAGA_AUC,WAGA cells (VP-MCC); [10],402.295
same,WAGA_AUC,WAGA cells (VP-MCC); [11],402.295
same,Area under the dose-response curve (AUC) WAGA Replicate 1,"WAGA cells (VP-MCC); follow-up screen, WAGA, replicate 1",571.8
same,Area under the dose-response curve (AUC) WAGA Replicate 2,"WAGA cells (VP-MCC); follow-up screen, WAGA, replicate 2",490.2
same,Area under the dose-response curve (AUC) WAGA Replicate 3,"WAGA cells (VP-MCC); follow-up screen, WAGA, replicate 3",485.7
same,MKL2_AUC,MKL-2 cells (VP-MCC); [10],410.273
same,MKL2_AUC,MKL-2 cells (VP-MCC); [12],410.273
same,Area under the dose-response curve (AUC) MKL-2 Replicate 1,"MKL-2 cells (VP-MCC); follow-up screen, MKL-2, replicate 1",493.4
same,Area under the dose-response curve (AUC) MKL-2 Replicate 2,"MKL-2 cells (VP-MCC); follow-up screen, MKL-2, replicate 2",509.3
same,Area under the dose-response curve (AUC) MKL-2 Replicate 3,"MKL-2 cells (VP-MCC); follow-up screen, MKL-2, replicate 3",493.0
same,HACAT_AUC,HACAT cells; [13],476.785
same,HACAT_AUC,HACAT cells; [14],476.785
same,Control-VP-MCC,[4]; [15],54.4642
same,VP-MCC_Avg_AUC,[4]; [16],415.4
same,MCC13_AUC,MCC13 cells (VN-MCC); [10],472.315
same,MCC13_AUC,MCC13 cells (VN-MCC); [17],472.315
same,Area under the dose-response curve (AUC) MCC13 Replicate 1,"MCC13 cells (VN-MCC); follow-up screen, MCC13, replicate 1",534.6
same,Area under the dose-response curve (AUC) MCC13 Replicate 2,"MCC13 cells (VN-MCC); follow-up screen, MCC13, replicate 2",495.7
same,Area under the dose-response curve (AUC) MCC13 Replicate 3,"MCC13 cells (VN-MCC); follow-up screen, MCC13, replicate 3",492.0
same,UISO_AUC,UISO cells (VN-MCC); [10],485.008
same,UISO_AUC,UISO cells (VN-MCC); [18],485.008
same,Area under the dose-response curve (AUC) UISO Replicate 1,"UISO cells (VN-MCC); follow-up screen, UISO, replicate 1",542.5
same,Area under the dose-response curve (AUC) UISO Replicate 2,"UISO cells (VN-MCC); follow-up screen, UISO, replicate 2",515.8
same,Area under the dose-response curve (AUC) UISO Replicate 3,"UISO cells (VN-MCC); follow-up screen, UISO, replicate 3",481.4
same,MCC_Avg_AUC,[5]; [19],445.98
same,CRL7250_AUC,CRL-7250 cells; [13],456.981
same,CRL7250_AUC,CRL-7250 cells; [20],456.981
same,MCC26_AUC,MCC26 cells (VN-MCC); [10],472.357
same,MCC26_AUC,MCC26 cells (VN-MCC); [21],472.357
same,Area under the dose-response curve (AUC) MCC26 Replicate 1,"MCC26 cells (VN-MCC); follow-up screen, MCC26, replicate 1",472.4
same,Area under the dose-response curve (AUC) MCC26 Replicate 2,"MCC26 cells (VN-MCC); follow-up screen, MCC26, replicate 2",446.6
same,Area under the dose-response curve (AUC) MCC26 Replicate 3,"MCC26 cells (VN-MCC); follow-up screen, MCC26, replicate 3",497.7
same,HEK293T_AUC,HEK293T cells; [13],470.007
same,HEK293T_AUC,HEK293T cells; [22],470.007
same,NIH3T3_AUC,NIH-3T3 cells; [13],475.685
same,NIH3T3_AUC,NIH-3T3 cells; [23],475.685
same,MKL1_AUC,MKL-1 cells (VP-MCC); [10],433.632
same,MKL1_AUC,MKL-1 cells (VP-MCC); [24],433.632
same,Area under the dose-response curve (AUC) MKL-1 Replicate 1,"MKL-1 cells (VP-MCC); follow-up screen, MKL-1, replicate 1",526.8
same,Area under the dose-response curve (AUC) MKL-1 Replicate 2,"MKL-1 cells (VP-MCC); follow-up screen, MKL-1, replicate 2",492.2
same,Area under the dose-response curve (AUC) MKL-1 Replicate 3,"MKL-1 cells (VP-MCC); follow-up screen, MKL-1, replicate 3",497.0
